Test results from PubChem BioAssay (NCI).
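Dose response: 5 concentrations. Exposure: 48 h. Format: 96-well plates. Endpoint: linear interpolation; highest concentration if not reached. The concentration for 50% growth inhibition is given as GI50. The concentration for full growth arrest is given as TGI.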

Legend:
Assay in all cases: DTP human tumour cell line panel, 48 h
[1] = test system: RXF 393 renal
[2] = test system: HT29 colon
[3] = test system: IGROV1 ovarian
[4] = test system: HCC-2998 colon
[5] = test system: SK-MEL-2 melanoma
[6] = test system: NCI-H522 lung
[7] = test system: SF-295 CNS
[8] = test system: SF-268 CNS
[9] = test system: HCT-15 colon
[10] = test system: SN12C renal

| Structure (SMILES) | TGI [1] [µM] | TGI [2] [µM] | TGI [3] [µM] | TGI [4] [µM] | TGI [5] [µM] | TGI [6] [µM] | TGI [7] [µM] | TGI [8] [µM] | TGI [9] [µM] | TGI [10] [µM] | GI50 [1] [µM] | GI50 [2] [µM] | GI50 [3] [µM] | GI50 [4] [µM] | GI50 [5] [µM] | GI50 [6] [µM] | GI50 [7] [µM] | GI50 [8] [µM] | GI50 [9] [µM] | GI50 [10] [µM] |
| --- | --- | --- | --- | --- | --- | --- | --- | --- | --- | --- | --- | --- | --- | --- | --- | --- | --- | --- | --- | --- |
| CC(=O)Nc1ccccc1S(=O)c1ccccc1 (centres undefined) | > 100 | > 100 | > 100 | > 100 | > 100 | > 100 | > 100 | > 100 | > 100 | > 100 |  |  |  |  |  |  |  |  |  |  |
| CC(=O)Nc1ccc(OCC(O)CO)cc1 (centres undefined) | > 100 | > 100 | > 100 | > 100 | > 100 | > 100 | > 100 | > 100 | > 100 | > 100 |  |  |  |  |  |  |  |  |  |  |
| O=C1C=C(OCC=C(Cl)Cl)C(=O)c2ccccc21 | 11.1 | > 100 | 23.5 | > 100 |  | 6.24 | > 65.8 | > 85.7 | > 100 | 8.27 | 2.46 | 11.7 | 4.04 | > 100 | 2.34 | 0.888 | 12.7 | 6.57 | 7.05 | 2.61 |
| COn1cc(C(=O)N=C(SC)SC)c2ccccc21 | 96.2 | > 100 | 55.5 | 36.8 | 52 | 42 | 55.4 | > 100 | 62.5 | 74.3 | 25 | 42.1 | 11.8 | 19.8 | 17.6 | 13.1 | 16.8 | > 100 | 22.4 | 22.4 |
| Cc1ccc(SSCCCCS(=O)O)cc1 | 29.1 | 53.7 | 18.8 | 66.3 | 68.5 | 27.6 | 96.4 | 46.9 | 89.2 | 40.4 |  |  |  |  |  |  |  |  |  |  |
| CC1CC2(C)CC(=O)C1C1C(=O)N(CCN3CCOCC3)C(=O)C12 (centres undefined) | > 100 | > 100 | > 100 | > 100 | > 100 | > 100 | > 100 | > 100 | > 100 | > 100 | > 100 | > 100 | > 100 | > 100 | > 100 | > 100 | > 100 | > 100 | > 100 | > 100 |
| COC(=O)C1=C(O)C(C(=O)OC)[C@@]2(O)[C@@H](C(=O)OC)C(c3ccccc3Cl)C[C@@H]1[C@@H]2C(=O)OC (some centres undefined) | 35.4 | 32.6 | 13 | 28.6 | 17.7 | 12.8 | 23.8 | 65.3 | 18 | 19.8 | 4.37 | 6.28 | 3.52 | 14 | 3.62 | 3.16 | 7.05 | 14.5 | 4.7 | 3.96 |
| ClCCCN1CCCCC1CCl (centres undefined) | > 100 | > 100 | > 100 | > 100 | > 100 | > 100 | > 100 | > 100 | > 100 | > 100 |  |  |  |  |  |  |  |  |  |  |
